Measured values as given in the NIST ThermoML archive (doi:10.1016/j.jct.2010.11.005).
“And” between values parts separate entries of the source, which are not always exact repeats. Identical values can stand only once. ± gives the expanded uncertainty stated by the source.

Legend:
[1] = molar enthalpy of vaporization or sublimation; settings: 298.15 K; Crystal; Calvet microcalorimetry
[2] = Crystal, Calculated from knudsen effusion weight loss

## O=C(c1cccc([N+](=O)[O-])c1)c1cccc([N+](=O)[O-])c1 [3,3'-dinitrobenzophenone]
[1]
  molar enthalpy: 35.2 ± 1.86 kcal/mol

## O=C(c1ccccc1)c1cccc([N+](=O)[O-])c1 [3-nitrobenzophenone]
[1]
  molar enthalpy: 29.5 ± 1.15 kcal/mol
[2]; 349.27 K
  vapor or sublimation pressure: 0.00016 ± 8e-06 kPa and 0.000161 ± 8e-06 kPa and 0.000162 ± 8e-06 kPa
[2]; 351.21 K
  vapor or sublimation pressure: 0.000194 ± 1e-05 kPa and 0.000198 ± 1e-05 kPa
[2]; 353.12 K
  vapor or sublimation pressure: 0.000248 ± 1.2e-05 kPa and 0.000245 ± 1.2e-05 kPa and 0.000244 ± 1.2e-05 kPa
[2]; 355.13 K
  vapor or sublimation pressure: 0.000315 ± 1.6e-05 kPa and 0.000308 ± 1.5e-05 kPa
[2]; 357.21 K
  vapor or sublimation pressure: 0.000399 ± 2e-05 kPa and 0.000396 ± 2e-05 kPa and 0.000395 ± 2e-05 kPa
[2]; 359.26 K
  vapor or sublimation pressure: 0.000506 ± 2.5e-05 kPa and 0.000508 ± 2.5e-05 kPa
[2]; 361.26 K
  vapor or sublimation pressure: 0.000613 ± 3.1e-05 kPa and 0.00061 ± 3.1e-05 kPa and 0.000614 ± 3.1e-05 kPa
[2]; 363.2 K
  vapor or sublimation pressure: 0.000758 ± 3.8e-05 kPa and 0.000749 ± 3.8e-05 kPa and 0.000771 ± 3.9e-05 kPa
[2]; 365.12 K
  vapor or sublimation pressure: 0.000936 ± 4.7e-05 kPa and 0.000935 ± 4.7e-05 kPa and 0.000946 ± 4.7e-05 kPa

## O=C(c1ccccc1)c1ccc([N+](=O)[O-])cc1 [4-nitrobenzophenone]
[1]
  molar enthalpy: 29.2 ± 1.29 kcal/mol
[2]; 359.27 K
  vapor or sublimation pressure: 0.00018 ± 9e-06 kPa and 0.000177 ± 9e-06 kPa and 0.000174 ± 9e-06 kPa
[2]; 361.19 K
  vapor or sublimation pressure: 0.000215 ± 1.1e-05 kPa and 0.00021 ± 1.1e-05 kPa and 0.000214 ± 1.1e-05 kPa
[2]; 363.12 K
  vapor or sublimation pressure: 0.000269 ± 1.3e-05 kPa and 0.000265 ± 1.3e-05 kPa and 0.000259 ± 1.3e-05 kPa
[2]; 365.29 K
  vapor or sublimation pressure: 0.000344 ± 1.7e-05 kPa and 0.000342 ± 1.7e-05 kPa
[2]; 367.2 K
  vapor or sublimation pressure: 0.000422 ± 2.1e-05 kPa and 0.00042 ± 2.1e-05 kPa and 0.000427 ± 2.1e-05 kPa
[2]; 369.12 K
  vapor or sublimation pressure: 0.000512 ± 2.6e-05 kPa and 0.000509 ± 2.5e-05 kPa and 0.000523 ± 2.6e-05 kPa
[2]; 371.29 K
  vapor or sublimation pressure: 0.000652 ± 3.3e-05 kPa and 0.000645 ± 3.2e-05 kPa and 0.000657 ± 3.3e-05 kPa
[2]; 373.18 K
  vapor or sublimation pressure: 0.000767 ± 3.8e-05 kPa and 0.000769 ± 3.8e-05 kPa and 0.000791 ± 4e-05 kPa
[2]; 375.1 K
  vapor or sublimation pressure: 0.000955 ± 4.8e-05 kPa and 0.000941 ± 4.7e-05 kPa and 0.00096 ± 4.8e-05 kPa
